Where a SMILES comes first, the peptide text is derived from it. [ ]: non-standard residue; d: D form. Dopa = N[C@@H](Cc1ccc(O)c(O)c1)C(=O)O
Legend:
[1] = PK of high concentration LD-Tyr formulations comprising TRIS, 0.5% CD (Example 15B); type: in vivo, domestic pig; details: female, pig, plasma, sc, analyte LD-Tyr, 18-hour continuous SC infusion
Experimental: A series of PK and local-tox studies was completed in domestic pigs using several high concentration LD-Tyr formulations comprising 0.5% CD and varying amounts of TRIS, as detailed in Table 33, and dosing regimens, as detailed in Table 34. The PK profile of LD-Tyr as well as the LD resulting therefrom was determined following 18-hour continuous SC infusion to female domestic pigs. Each formulation was administered at one infusion site per animal using a Crono-ND infusion pump (Canè SpA Medical Technology, Rivoli, Italy) connected to an infusion set (Accu-chek®, FlexLink, Roche).
(§1) Blood samples for the determination of LD-Tyr and LD plasma levels were collected from the pigs at the following timepoints: […]

[2] = Effect of various additives on stability of a 20% LD-Tyrosine-L-Arginine based formulation; type: physicochemical
Minipig/Göttingen = assay: Local safety, 24-hour SC infusion; type: in vivo
Experimental: (§2) In vivo non-clinical safety studies were conducted in both the rat and minipig. Additionally, an assessment of the local infusion site reaction of LD-Tyr was performed as part of a PK study in domestic pigs.

red blood cells (RBC) [3] = assay: Blood/plasma ratio, partitioning into red blood cells, human blood ex vivo; type: in vitro ADME; details: human blood
[4] = Long-term stability of 30% LD-Tyrosine/0.75% carbidopa at 2-8° C.; type: physicochemical
Experimental: The formulation also included 0.5% ascorbic acid (Asc), 0.5% N-acetyl cysteine (NAC) and 0.3% Tween 80. The formulation was stored at 2-8° C. for the time indicated, and % recovery and % LD-Tyr-DKP formation (an impurity) were tested. Percent recovery remained high over time. The DKP impurity accumulated over time.

Rat/SD = assay: Maximal Tolerated Dose (MTD), bolus SC; type: in vivo; details: study MTD Exp 001, Rat/SD, bolus SC, highest dose (625 mg/kg), males
Experimental: as §2

[5] = Maximal Tolerated Dose (MTD), bolus SC; type: in vivo; details: in vivo; study MTD Exp 001, Rat/SD, bolus SC, 90, 150, 300, 625 mg/kg
Experimental: as §2

[6] = PK of LD following 18-hr SC administration of LD-Tyr in a formulation comprising ethanol (Example 22); type: in vivo, domestic pig; details: for AUC(0-t) / Cmax / Tmax: pig, plasma, analyte LD-Tyr, 18-hr continuous SC, formulation comprising ethanol
Experimental: The objective of this study is to determine the pharmacokinetics (PK) of LD-Tyr following an 18-hr continuous subcutaneous (SC) administration in domestic pigs of a formulation comprising 30& LD-Tyr and ethanol. Table 53 provides the LD-Tyr formulation tested in this study.
Animals were dosed with 2700 or 5400 mg of LD-Tyr in the formulation of Table 53 in an 18-hr continuous subcutaneous administration in an infusion volume of 9 or 18 ml (9 mL×2 sites).

in vivo = details: female, pig, sc, analyte LD-Tyr
Experimental: A series of PK studies was completed in domestic pigs using several LD-Tyr formulations, as detailed in Table 26, and dosing regimens, as detailed in Table 27. The PK profile of LD-Tyr as well as the LD resulting therefrom was determined following 18-hour continuous SC infusion to female domestic pigs. Each formulation was administered at one infusion site per animal using a Crono-ND infusion pump (Canè SpA Medical Technology, Rivoli, Italy) connected to an infusion set (Accu-chek®, FlexLink, Roche).
as §1

red blood cells (RBC) [7] = assay: Blood/plasma ratio, partitioning into red blood cells, rat blood ex vivo; type: in vitro ADME
red blood cells (RBC) [8] = assay: Blood/plasma ratio, partitioning into red blood cells, minipig blood ex vivo; type: in vitro ADME; details: for KRBC/PL: 50 ng/mL
[9] = PK of formulations with varying concentrations of LD-Tyr and CD (Example 16); type: in vivo, domestic pig; details: female, pig, plasma, sc, analyte LD-Tyr, 18-hour continuous SC infusion
Experimental: A series of PK and local site reaction studies was completed in domestic pigs using several concentrations LD-Tyr formulations comprising varying amounts of CD, as detailed in Table 37, and dosing regimens, as detailed in Table 38. The PK profile of LD-Tyr, as well as the LD resulting therefrom, was determined following 18-hour continuous SC infusion to female domestic pigs. Each formulation was administered at one infusion site per animal using a Crono-ND infusion pump (Canè SpA Medical Technology, Rivoli, Italy) connected to an infusion set (Accu-chek®, FlexLink, Roche).
as §1

[10] = LD-Tyr/CD 30/0.5 % w/v, daily dose 2775/37.5 mg, n = 2
[11] = LD-Tyr/CD 37/0.5 % w/v, daily dose 2640/30 mg, n = 3
[12] = LD-Tyr/CD 44/0.5 % w/v, daily dose 2700/45 mg, n = 1
[13] = 2700 mg, LD-Tyr/CD daily dose 2700/117 mg, n = 5
[14] = 5400 mg, LD-Tyr/CD daily dose 5400/234 mg, n = 3
[15] = 2640 mg/day, LD-Tyr/CD 44/1 % w/v, daily dose 2640/60 mg, n = 4
[16] = 2700 mg/day, LD-Tyr/CD 30/0.5 % w/v, daily dose 2700/45 mg, n = 5
[17] = 2700 mg/day, LD-Tyr/CD 30/[…] w/v, daily dose 2700/135 mg, n = 5

Which AUC(0-t) [1, 10] does the source give for `N[C@@H](Cc1ccc(O)c(O)c1)C(=O)N[C@@H](Cc1ccc(O)cc1)C(=O)O` [LD-Tyr, levodopa-tyrosine (LD-Tyr) conjugate of the formula (II)] (H-[Dopa]-Tyr-OH) here?
The AUC(0-t) was 4800 ng·h/mL.

And the Cmax [1, 10]?
Its Cmax is 445 ng/mL.

What about the Tmax [1, 10] of the same molecule?
Its Tmax is 10 h.

What about the AUC(0-t) [1, 11] of the same molecule?
The AUC(0-t) was 5600 ng·h/mL.

What about the Cmax [1, 11] of the same molecule?
Its Cmax is 491 ng/mL.

What about the Tmax [1, 11] of the same molecule?
Its Tmax is 15 h.

What about the AUC(0-t) [1, 12] of the same molecule?
The AUC(0-t) was 534 ng·h/mL.

What about the Cmax [1, 12] of the same molecule?
Its Cmax is 49.6 ng/mL.

And the Tmax [1, 12]?
Its Tmax is 2 h.

What about the “solubility of the LD-Tyr (rank order of cosolvents)” value [2] of the same molecule?
The value was “DMA>Ethanol>PEG 300”.

What about the “subchronic/chronic inflammation in the subcutis” value (Minipig/Göttingen; study 0NMR6, 120 mg/mL at 4.5 mL (540 mg/day)) of the same molecule?
Its value is “minimal to mild”.

And the “tolerability (local effect, cutaneous ulcers)” value (“tolerability” below) (Minipig/Göttingen; study 0NMR6, 24-hour SC infusion, 120 mg/mL at 4.5 mL (540 mg/day))?
The value was “well tolerated with no”.

What about the “chronic inflammation in the subcutis” value (Minipig/Göttingen; study 0NMR10, 130 mg/mL at 6 mL (780 mg/day)) of the same molecule?
The value was “minimal to moderate”.

And the “tolerability” value (Minipig/Göttingen; study 0NMR10, 24-hour SC infusion, 130 mg/mL at 6 mL (780 mg/day))?
Its value is “well tolerated with no”.

And the “tolerability” value (Minipig/Göttingen; study E0515, 24-hour SC infusion, 440, 370, 300, and 250 mg/mL (2640, 2775, 2700, and 2250 mg/day))?
The value was “well tolerated with no”.

What about the RBC binding (red blood cells (RBC) [3]) of the same molecule?
The RBC binding was “no RBC binding”.

What about the KRBC/PL (red blood cells (RBC) [3]; all measured) of the same molecule?
The KRBC/PL was “below one”.

And the “% DKP” value ([4]; 1 month)?
The value was 1.88 % area.

And the “mg/mL (concentration in formulation)” value ([4]; 1 month)?
Its value is 295.74 mg/mL.

What about the “% DKP” value ([4]; 1 week) of the same molecule?
The value was 0.99 % area.

What about the “mg/mL (concentration in formulation)” value ([4]; 1 week) of the same molecule?
The value was 294.13 mg/mL.

And the “% DKP” value ([4]; 2 months)?
The value was 2.60 % area.

And the “mg/mL (concentration in formulation)” value ([4]; 2 months)?
Its value is 302.47 mg/mL.

And the “% DKP” value ([4]; 2 weeks)?
The value was 1.19 % area.

And the “mg/mL (concentration in formulation)” value ([4]; 2 weeks)?
The value was 304.25 mg/mL.

What about the “% DKP” value ([4]; 3 months) of the same molecule?
The value was 4.04 % area.

What about the “mg/mL (concentration in formulation)” value ([4]; 3 months) of the same molecule?
Its value is 296.57 mg/mL.

And the “% DKP” value ([4]; t = 0)?
Its value is 0.86 % area.

And the “mg/mL (concentration in formulation)” value ([4]; t = 0)?
The value was 297.62 mg/mL.

What about the Mortality (Rat/SD) of the same molecule?
Its Mortality is “Mortality (1/4 males)”.

And the MTD [5]?
The MTD was 300 mg/kg.

What about the dose proportionality ([6]; 2700 and 5400 mg, 18-hr continuous SC administration) of the same molecule?
Its dose proportionality is “dose proportionality”.

What about the AUC(0-t) [6, 13] of the same molecule?
Its AUC(0-t) is 8210 ± 4120 ng·h/mL.

What about the Cmax [6, 13] of the same molecule?
The Cmax was 707 ± 283 ng/mL.

And the Tmax [6, 13]?
The Tmax was 14 h.

And the AUC(0-t) [6, 14]?
Its AUC(0-t) is 21200 ± 8570 ng·h/mL.

And the Cmax [6, 14]?
The Cmax was 1610 ± 902 ng/mL.

What about the Tmax [6, 14] of the same molecule?
The Tmax was 14 h.

What about the Tmax (in vivo) of the same molecule?
Its Tmax is 10.4 h.

What about the “KRBC/PL versus time of incubation” value (red blood cells (RBC) [7]; rat blood) of the same molecule?
Its value is “increased with the time of incubation”.

And the RBC binding (red blood cells (RBC) [7]; rat blood)?
Its RBC binding is “limited RBC binding”.

And the “partition coefficient between RBC and plasma (KRBC/PL)” value (red blood cells (RBC) [7]; rat blood, 50, 150 and 2500 ng/mL)?
The value was “below five”.

What about the RBC binding (red blood cells (RBC) [8]; minipig blood) of the same molecule?
Its RBC binding is “limited RBC binding”.

And the KRBC/PL (red blood cells (RBC) [8]; minipig blood, after 30 minutes (declined))?
Its KRBC/PL is 0.0.

What about the KRBC/PL (red blood cells (RBC) [8]; minipig blood, at 15 and 30 minutes) of the same molecule?
The KRBC/PL was 1.

And the “partition coefficient between RBC and plasma (KRBC/PL)” value (red blood cells (RBC) [8]; minipig blood, 50, 150 and 2500 ng/mL)?
The value was “below five”.

And the “KRBC/PL versus time of incubation” value (red blood cells (RBC) [8]; minipig blood, two highest concentrations (150 and 2500 ng/mL))?
The value was “increased with the time of incubation”.

And the AUC(0-t) [9, 15]?
Its AUC(0-t) is 8130 ng·h/mL.

And the Cmax [9, 15]?
Its Cmax is 738 ng/mL.

What about the Tmax [9, 15] of the same molecule?
The Tmax was 11.6 h.

What about the AUC(0-t) [9, 16] of the same molecule?
Its AUC(0-t) is 5450 ng·h/mL.

What about the Cmax [9, 16] of the same molecule?
Its Cmax is 453 ng/mL.

And the Tmax [9, 16]?
The Tmax was 8.8 h.

And the AUC(0-t) [9, 17]?
Its AUC(0-t) is 13500 ng·h/mL.

What about the Cmax [9, 17] of the same molecule?
Its Cmax is 986 ng/mL.

And the Tmax [9, 17]?
The Tmax was 12.4 h.

Reference: patent US20240207410A1, “STABILIZED LIQUID COMPOSITIONS COMPRISING A LEVODOPA-TYROSINE CONJUGATE AND USES THEREOF” (NeuroDerm, Ltd., priority 2021, published 2024)
